Here are results for nine compounds from patent US12507721B2, “Ready-to-use parenteral nutrition formulation” (BAXTER INTERNATIONAL INC., priority 2021, dated 2025).

The nature of data set [1]: Impact of DO on selenium stability; mix of 9 trace elements. It counts as physicochemical. Particulars: sterilized samples stored at 40° C., FIG. 5. As for the experimental part: The impact of oxygen seems of major importance in the stability of selenite containing trace element formulations. […] To confirm this hypothesis, a regression test was performed between Se assay results and log(dissolved oxygen results). Only sterilized samples stored at 40° C. were considered as the sterilization and storage at high temperature seem to both increase the Se degradation.
The presence of oxygen promotes selenite stability. To ensure that it is not deleterious to another TE the stability of a mix of the 9 TE of interest (i.e. Zn, Cu, Cr, Mo, Mn, Fe, I, F & Se) was evaluated at pH 2.2 with 200 mM of malic acid (to ensure iodide stability) and stored in a glass bottle (so containing about 3 ppm of dissolved oxygen). The solution was heat sterilized and stored 6 months at 40° C. or 5° C. (T6M 40° C. and T6M 5° C., respectively).

Data set [2] can be described thus: Selenium stability in trace element solutions with selenate, selenomethionine or selenite. Conditions: for selenium concentration during storage: TE formulation pH 2.2, heat sterilized, conditions not optimized for DO, FIGS. 9-11. As for the experimental part: (§1) Timepoint 0 corresponds to the results of TE dosage right after sterilization. […] Timepoints 1, 3 and 6 correspond to the results of TE dosage after 1 month, 3 months and 6 months storage at 40° C./25% RH.
as §1, §1
For the three tested solutions containing different forms of selenium, the selenium is mixed with other TE (Zn, Cu, Mn, F, I, Mo, Cr, Fe), which were introduced as chloride salts. The solutions were acidified to pH 2.2 using malic acid and underwent terminal heat sterilization prior to storage.

Data set [3] can be described thus: Vitamin stability in 35% glucose solution during sterilization and storage. It counts as physicochemical. Conditions: for Unsterilized T0 concentration / T1M40° C. concentration / T3M40° C. concentration / Cycle 3 T0 concentration / T6M40° C. concentration / Cycle 4 T0 concentration: 35% glucose solution; for T1M40° C. concentration: 1 month at 40° C.; for T3M40° C. concentration: 3 months at 40° C.; for Cycle 3 T0 concentration: C0 = 25 minutes; for Cycle 3 T0 concentration / Cycle 4 T0 concentration: after sterilization; for T6M40° C. concentration: 6 months at 40° C., B12 value (*) is the sum of cyanocobalamin and hydroxocobalamin; for Cycle 4 T0 concentration: C0 = 19 minutes. As for the experimental part:
For testing the stability of vitamin B12 in formulation as they are typically used in parenteral nutrition, a 35% glucose solution, a 14.2% amino acid formulation such as found, for example, in Olimel N9E (Baxter), and a 20% lipid emulsion such as found in Clinoleic 20% (Baxter) were supplemented with different vitamin combinations which always included vitamin B12. KCl was added into the glucose solution to understand if it has an effect on the stability of vitamin B12. Vitamin B1 was introduced as thiamin HCl. Ascorbyl palmitate was added to the lipid emulsion formulation as a stabilizing agent due to its antioxidant properties. In addition, two separate micellar solutions (“Vit A” and “Vit B”, see Table 9) comprising certain vitamins to be assessed with regard to degradation (B3, B6, B8, B9, B12, C) but formulated with different excipients as micellization agents were tested for vitamin B12 stability. Vit A consisted of a solution of mixed micelles with ascorbyl palmitate as a potential stability enhancer. Vit B was formulated with a mix of polysorbates, PEG and sorbitol to form micelles. The micellar solutions were prepared by mixing, under high speed, a solution composed of glycocholic acid and lecithins dissolved in water. In case of Vit B, the glycocholic acid and lecithin were replaced by PEG and polysorbate. All formulations were provided in standard flexible containers and overpouched with an aluminum overpouch for subsequent sterilization. For an overview over formulations and conditions see Table 9.
All samples were submitted to two different sterilization technologies. Steam sterilization targeting a F0=8 min was used for large volumes (400/800 ml, Cycle 2) and for small volumes (25/50 ml, Cycle 1) as lined out in Table 9 above. The same samples were sterilized by water spray sterilization with a serial tower continuous sterilization equipment with two different exposure times (Cycles 3 (25 min.) and 4 (19 min.)).
The vitamin recovery was then compared between the different sterilization cycles and formulations to understand the impact of the formulation and the sterilization technology used on their respective short- and long-term stability. Therefore, after sterilization, the samples were stored at 40° C./25% RH for 6 months to evaluate the recovery of vitamin B12 at T1M, T3M and T6M. Besides, backup samples were stored at 5° C. Finally, some samples were also stored at 25° C./40% RH to provide for real time stability data.

Data set [4] is described as follows: Studies of vitamin B12 in lipid emulsions irrespective of oil source, pH or stabilizing agent. It counts as physicochemical. The protocol: (storage for 3 months at 40° C.), even though hydroxocobalamin seems to remain relatively stable for about 6 months at 40° C.
For data set [5] the following is noted: pediatric PN formulation stored at 25° C.; cited from earlier work.
Data set [6] in a line: Storage of Glucose Batch 1 at 40° C./25% RH for 6 months. It counts as physicochemical. Conditions: sterilization cycles of Example 7. The protocol: In a next step, the stability of vitamin B12 was examined in Glucose Batch 1 which seemed to be the most promising based on the results shown in Table 7. Accordingly, several bags were stored at 40° C./25% RH for 6 months (T6M). Batch Glucose 1 was analyzed at T6M to revisit the presence of vitamin B12 in either its cyanocobalamin or hydroxocobalamin form. In order to test the validity of the test, vitamins B1, B3 and B6 were tested together with vitamin B12 both after sterilization and then throughout shelf life.

Setting [7] is: 25 ml, Cycle 1 steam sterilization.
[8] abbreviates: 800 ml, Cycle 2 steam sterilization.
Where [9] appears, read: 800 ml, Cycle 3 water spray sterilization.
Setting [10] is: 800 ml, Cycle 4 water spray sterilization.

Consider `O=[Se](O)O` [selenite, sodium selenite], for which the “oxygen amount sufficient to ensure stability in the trace element formulation” value in data set [1] was “around 0.5 ppm”. Besides, in data set [2] (TE solution pH 2.2 (malic acid), terminal heat sterilization, DO not strictly controlled, analysis stopped), the “stability after three months” value is “lack of stability”.
Regarding cyanocobalamin [B12 CC], in data set [3] (standard PN glucose solution, Cycles 1 and 2 (steam sterilization), FIG. 4), the “detection of cyanocobalamin after 6 months” value is reported as “no cyanocobalamin can be detected”. For the same compound, the detection of cyanocobalamin result in data set [4] (T3M40° C. (storage for 3 months at 40° C.)) was “no more cyanocobalamin can be detected”.
Regarding `O=C1O[C@H]([C@@H](O)CO)C(O)=C1O` [vitamin C, ascorbic acid], the “time after which instability was presented” value in data set [5] was 48 h.
For `Cc1ncc(C[n+]2csc(CCO)c2C)c(N)n1` [Batch B1, thiamine], the degradation during sterilization result in data set [6] is reported as “no significant degradation”.
For `C/C1=C2/[N-][C@H]([C@H](CC(N)=O)[C@@]2(C)CCC(=O)NC[C@@H](C)OP(=O)([O-])O[C@H]2[C@@H](O)[C@@H](n3cnc4cc(C)c(C)cc43)O[C@@H]2CO)[C@]2(C)N=C(/C(C)=C3N=C(/C=C4N=C1[C@@H](CCC(N)=O)C\4(C)C)[C@@H](CCC(N)=O)[C@]\3(C)CC(N)=O)[C@@H](CCC(N)=O)[C@]2(C)CC(N)=O.[Co+3].[OH-]` [B12 HC, hydroxocobalamin], the “time remaining relatively stable” value in data set [4] (at 40° C.) is listed as “about 6 months”.
Regarding `C[Se]CC[C@H](N)C(=O)O` [selenomethionine], in data set [2], the “selenium concentration during storage” value was “remained stable”.
Turning to `NC(=O)c1cccnc1` [Batch B3, Nicotinamide], the degradation during sterilization result in data set [6] was “no significant degradation”. For the same compound, the “Unsterilized T0 concentration” value in data set [3] (25 ml (Table 10A)) is on record as 51.10 mg/L; in data set [3] (800 ml (Table 10B)) it was 51.10 mg/L; in data set [3] (800 ml (Table 11A)), 52.80 mg/L; in data set [3] (800 ml (Table 11B)), 52.80 mg/L. The “T1M40° C. concentration” value is given as 49.30 mg/L in data set [3] (setting [7]) and 50.60 mg/L in data set [3] (setting [8]). Also, the “T3M40° C. concentration” value is listed as 50.20 mg/L in data set [3] (setting [7]), 51.20 mg/L in data set [3] (setting [8]), 50.30 mg/L in data set [3] (setting [9]) and 51.00 mg/L in data set [3] (setting [10]). In data set [3] (setting [9]), the “Cycle 3 T0 concentration” value came out at 50.50 mg/L. In addition, the “T6M40° C. concentration” value was 48.27 mg/L in data set [3] (setting [9]) and 49.35 mg/L in data set [3] (setting [10]). For the same compound, the “Cycle 4 T0 concentration” value in data set [3] (setting [10]) amounted to 50.40 mg/L.
On to `O=[Se](=O)(O)O` [Selenate, sodium selenate], for which the “selenium concentration during storage” value in data set [2] is on record as “remained stable”.
For the compound `Cc1ncc(CO)c(CO)c1O` [Batch B6, pyridoxine], the degradation during sterilization result in data set [6] is “no significant degradation”. Moreover, the “Unsterilized T0 concentration” value is 6.40 mg/L in data set [3] (25 ml (Table 10A)), 6.40 mg/L in data set [3] (800 ml (Table 10B)), 6.61 mg/L in data set [3] (800 ml (Table 11A)) and 6.61 mg/L in data set [3] (800 ml (Table 11B)). Further, the figures for the “T1M40° C. concentration” value in data set [3] (setting [7]) and in data set [3] (setting [8]) were 6.40 mg/L and 5.93 mg/L, respectively. For the same compound, the “T3M40° C. concentration” value in data set [3] (setting [7]) came out at 6.50 mg/L; in data set [3] (setting [8]), 6.00 mg/L; in data set [3] (setting [9]), 6.10 mg/L; in data set [3] (setting [10]), 5.90 mg/L. The “Cycle 3 T0 concentration” value in data set [3] (setting [9]) is on record as 6.23 mg/L. The “T6M40° C. concentration” value was determined as 6.04 mg/L in data set [3] (setting [9]) and 6.03 mg/L in data set [3] (setting [10]). Moreover, in data set [3] (setting [10]), the “Cycle 4 T0 concentration” value is given as 6.27 mg/L.
